Test results published in patent US7893299B2, “Interleukin-1 and tumor necrosis factor-αmodulators; syntheses of such modulators and methods of using such modulators” (Nereus Pharmaceuticals, Inc., priority 2005, dated 2011).
Where two headings read alike, the source gives them in different places.

Experiments:
[1] = mice, cited from earlier work; for toxicity (in words): mice and rats
[2] = test system: silicosis (chronic lung inflammation) and cirrhosis (liver inflammation and hepatic fibrosis); settings: mice with silicosis and cirrhosis; cited from earlier work
[3] = rat, in vivo; cited from earlier work
[4] = test system: TNF-α and IL-1 production; settings: approximately 0.1 to approximately 1.0 microgram/ml for 48 hours; cited from earlier work
[5] = test system: IL-6 or IFN-γ production; settings: under the same conditions; cited from earlier work
[6] = test system: HS766T cells; assay: apoptosis by PI FACS analysis, HS766T; type: cell-based, human; settings: combination treatment with Salinosporamide A, increased from 4%
Description: (§1) Novel diterpene inhibitors of NFκB derived from acanthoic acid (NPI-1342 (Formula IIB-a1) and NPI-1387; compound 24 under scheme 4 above) show measurable effects in human pancreatic cancer cell lines in vitro. Seven of the nine cell lines were moderately sensitive to apoptosis induced by death receptor ligand Tumor Necrosis Factor (TNF) related apoptosis-inducing ligand (TRAIL). […] Specific silencing of NFkB/p65 expression mimicked these effects. Furthermore, combination treatment of Salinosporamide A and either NPI-1342 or NPI-1387 led to induction of apoptosis as measured by PI FACS analysis. Specifically, levels of DNA fragmentation increased from 4% to 50% in HS766T cells and from 4% to 52% in Panc1 cells. The inhibitory effects of NPI-1342, NPI-1387 on NFκB were evaluated by Electromobility Shift Assays and confirmed by confocal microscopy.

[7] = test system: Panc1 cells; assay: apoptosis by PI FACS analysis, Panc1; type: cell-based, human; settings: combination treatment with Salinosporamide A, increased from 4%
Description: as §1

[8] = test system: Panc1 and HS766T; assay: TRAIL resistance of human pancreatic cancer cell lines; type: cell-based
Description: as §1

| Structure (SMILES) | LD ([1]; orally) | toxicity (in words) [1] | toxicity (in words) ([1]; listed as Compound 1) | histologic analysis: fibrotic granulomas and cirrotic liver cells [2] | minimum lethal dose (MLD) [3] [mg/kg] | inhibition of the TNF-α and IL-1 production [4] | production of IL-6 or IFN-γ [5] | levels of DNA fragmentation [6] [%] | levels of DNA fragmentation [7] [%] | TRAIL resistance [8] |
| --- | --- | --- | --- | --- | --- | --- | --- | --- | --- | --- |
| C=C[C@@]1(C)CC=C2[C@@H](CC[C@@H]3[C@](C)(C(=O)O)CCC[C@@]23C)C1 [Formula (I), acanthoic acid] | > 300 mg/100 g of body weight | minimal toxicity | very little toxicity | substantial reduction of fibrotic granulomas and a remarkable recovery of the cirrotic liver cells | 1000 | approximately 90% | not affected |  |  |  |
| C=C[C@@]1(C)CCC=C2[C@H]1CC[C@@H]1[C@](C)(C(=O)NC3CCCCC3)CCC[C@@]21C (stereo in doubt) [Formula (IIB-A1), N-Cyclohexylamide Derivative of TTL] |  |  |  |  |  |  |  | 50 | 52 | reversed TRAIL resistance |
